Results on 15 substances are retold here after patent publication US20260174875A1 (Novo Nordisk A/S, priority 2023, published 2026).

Read-outs that look alike come from different tables or passages of the source. Numbered stars: 1 amine (or outer) side, 2 acyl side, 3 side chain; on linkers, the order of the positions; unused ones are H or OH. Square brackets hold non-standard residues; d marks the D form. Side chains are listed from the residue outwards. * marks the point of attachment. C20 diacid = O=C(O)CCCCCCCCCCCCCCCCCCC(=O)*; C18 diacid = O=C(O)CCCCCCCCCCCCCCCCC(=O)*; C16 diacid = O=C(O)CCCCCCCCCCCCCCC(=O)*; γGlu = O=C(O)[C@H](CCC(=O)[*:2])N[*:1]; AEEA = NCCOCCOCC(=O)O; Aib = CC(C)(N)C(=O)O

The target in data set [1] is T1, human amylin receptor (hAMYR3) (Homo sapiens, UniProt O60896+P30988).
T1 construct: host or cells: BHK cells (Hollex-1 line expressing hCTR(a) and CRE-Luc), further transfected with human RAMP3
T1 sequence (P30988 25-474): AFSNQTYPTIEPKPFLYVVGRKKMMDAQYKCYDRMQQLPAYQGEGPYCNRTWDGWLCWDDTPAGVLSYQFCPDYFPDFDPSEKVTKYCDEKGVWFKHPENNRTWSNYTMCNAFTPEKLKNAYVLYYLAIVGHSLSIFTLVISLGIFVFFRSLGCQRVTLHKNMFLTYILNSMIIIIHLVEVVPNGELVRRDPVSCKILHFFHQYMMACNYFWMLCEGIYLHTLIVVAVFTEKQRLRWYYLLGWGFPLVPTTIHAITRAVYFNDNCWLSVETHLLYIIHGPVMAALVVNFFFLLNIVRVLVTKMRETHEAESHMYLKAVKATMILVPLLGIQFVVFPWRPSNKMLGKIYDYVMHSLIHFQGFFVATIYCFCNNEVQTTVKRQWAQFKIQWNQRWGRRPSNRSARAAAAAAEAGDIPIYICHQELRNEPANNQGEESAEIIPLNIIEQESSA
T1 sequence (O60896 24-148): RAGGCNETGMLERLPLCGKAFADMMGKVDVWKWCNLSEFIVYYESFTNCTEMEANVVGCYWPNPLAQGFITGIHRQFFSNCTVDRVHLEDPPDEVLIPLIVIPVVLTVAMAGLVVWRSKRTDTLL
The data set is described as follows: Amylin receptor assay, method B (CRE-luciferase reporter, BHK cells). Format: cell-based. An outline of the steps:
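BHK cells with CRE-luciferase, co-expressing hAMYR3 and transfected with human RAMP3, seeded overnight, then exposed 3 h at 37 °C to compound. Buffer: phenol red-free DMEM, 10 mM HEPES, 1% ovalbumin, with 0% or 1% (w/v) HSA. Luminescence read after 30 min with steadylite Plus.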

The nature of data set [2]: Pharmacokinetic study in minipigs (i.v.). Format: in vivo, Göttingen minipigs. The note with it: female, Göttingen, minipig, plasma, iv; i.v. administration to minipigs, 2 nmol/kg; read-out: Terminal half-life t1/2 (converted). As to the method: This is done in a pharmacokinetic (PK) study, where the terminal half-life (t1/2) of the compound or derivative in question is determined. By terminal half-life is meant the time it takes to halve a certain plasma concentration in the terminal elimination phase.
Female Göttingen minipigs, obtained from Ellegaard Göttingen Minipigs (Dalmose, Denmark), approximately 8-12 months of age and weighing approximately 20-30 kg were used in the studies.
After three weeks of acclimatisation two permanent central venous catheters were implanted in vena cava caudalis in each animal. The animals were allowed at least 10 days recovery after the surgery and were then used for repeated pharmacokinetic studies with a suitable wash-out period between successive dosing.
The compounds of the invention were formulated (40 nmol/ml) in the following vehicle: 8 mM phosphate; 250 mM glycerol; 0.007% polysorbate 20, pH 7.4.
Blood samples (for example 1.3 ml) were collected in EDTA (1.3 ml tube containing K3EDTA to yield 1.6 mg K3EDTA/ml blood) coated tubes and then centrifuged at 4° C. and 2000×g for 10 minutes.
Plasma was within 30 min after centrifugation pipetted into Micronic tubes stored on dry ice and were afterwards kept at −20° C. until analysed for plasma concentration of the compounds using LCMS.
Plasma concentrations of the peptides of the invention were assayed by plasma protein precipitation and analysed by liquid chromatography mass spectrometry (LC-MS). Calibrators were prepared by spiking blank plasma from minipigs with the compounds in the typical range from 0.05 to 200 nM. […] The supernatant was diluted with 1 volumes of Milli-Q water containing 1% Formic acid before injection on the LC-MS system. Individual plasma concentration-time profiles were analysed by a non-compartmental pharmacokinetic method (NCA) in Phoenix v. 6.4 (Pharsight Inc., Mountain View, CA, USA), and the resulting terminal half-lives (harmonic mean) determined. The LC-MS analysis was carried out using a TurboFlow HPLC system from Thermo Fisher Scientific (Bremen, Germany) coupled to either a Q Exactive Orbitrap or Altis Triple Quadrupole (TQ) Mass Spectrometer. […] The Orbitrap mass spectrometer were operating in positive ionization mode with a spray voltage of 4.0 kV using Parallel Reaction Monitoring scan mode using 5 m/z isolation windows on the most abundant charge state of the compounds with a resolution of 35K on the Orbitrap MS.
The data was processed using the Quan Browser in the Xcalibur software from Thermo Fisher Scientific (Bremen, Germany) by fitted the data to linear calibration curves (weighed 1/x^2), used for calculating the concentration in the plasma samples. Quality control samples were included.

Data set [3] has as its target T2, human GIP receptor (hGIPR) (Homo sapiens, UniProt P48546).
T2 construct: expressed in transfected cells
T2 sequence (P48546 22-466): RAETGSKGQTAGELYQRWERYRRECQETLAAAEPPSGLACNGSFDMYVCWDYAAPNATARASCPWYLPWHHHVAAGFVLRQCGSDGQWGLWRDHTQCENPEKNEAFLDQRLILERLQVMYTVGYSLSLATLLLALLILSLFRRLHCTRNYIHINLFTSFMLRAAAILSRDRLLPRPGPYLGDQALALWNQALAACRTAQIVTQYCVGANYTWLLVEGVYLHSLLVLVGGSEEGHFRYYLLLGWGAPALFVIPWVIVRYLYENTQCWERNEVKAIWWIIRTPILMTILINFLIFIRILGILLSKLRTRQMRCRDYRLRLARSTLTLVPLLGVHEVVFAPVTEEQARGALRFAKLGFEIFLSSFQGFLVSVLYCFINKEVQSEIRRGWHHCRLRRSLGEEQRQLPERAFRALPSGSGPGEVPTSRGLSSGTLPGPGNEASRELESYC
The data set is described as follows: GIP receptor assay, method B (CRE-luciferase reporter, BHK cells, 384-well). Format: cell-based. (In general: In a reporter assay the amount or activity of a reporter protein is the signal.)

The target of data set [4] is T3, human GLP-1 receptor (hGLP-1R) (Homo sapiens, UniProt P43220).
T3 construct: expressed in transfected cells
T3 sequence (P43220 24-463): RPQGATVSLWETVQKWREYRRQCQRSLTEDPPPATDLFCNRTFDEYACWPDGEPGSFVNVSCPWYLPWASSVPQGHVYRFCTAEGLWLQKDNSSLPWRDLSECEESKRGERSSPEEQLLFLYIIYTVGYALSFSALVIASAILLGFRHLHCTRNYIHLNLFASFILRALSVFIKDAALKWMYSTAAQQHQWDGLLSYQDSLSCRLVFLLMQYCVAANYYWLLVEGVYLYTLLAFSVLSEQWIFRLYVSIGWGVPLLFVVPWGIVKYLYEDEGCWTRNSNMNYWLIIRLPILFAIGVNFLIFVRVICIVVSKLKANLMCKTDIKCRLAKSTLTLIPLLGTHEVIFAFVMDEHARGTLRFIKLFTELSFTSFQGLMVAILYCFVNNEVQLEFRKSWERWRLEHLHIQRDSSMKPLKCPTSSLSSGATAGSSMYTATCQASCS
The data set can be described thus: GLP-1 receptor assay, method B (CRE-luciferase reporter, BHK cells, 384-well). Format: cell-based.
Procedure: To assess how the activation of the receptors is potentially influenced by the presence of human serum albumin (HSA), the in vitro assays were performed in the absence of HSA and presence of 1% (w/v) HSA.
Cells at approximately 80-90% confluence were washed once in PBS (Gibco 14190-094) and loosened from the cell flasks with Versene (Gibco, 15040-033). […] Cells were aliquoted and stored at −180° C. until use.
The assay buffer consisted of DMEM without phenol red (Gibco, 11880-028) supplemented with 1× GlutaMAX (Gibco, 35050-038), 10 mM HEPES (Gibco, 15630-056), 1% (w/v) ovalbumin (Sigma, A5503) and 0.1% (v/v) Pluronic F-68 (Gibco, 24040-032) either with HSA or without HSA (Sigma, A9511).
Serial dilutions were transferred to a 384-well assay plate (PerkinElmer/Revvity, 6007688) and mixed with an equal volume (10 μL) of assay buffer without or with 3% (w/v) HSA (Sigma, A-9511). Frozen stocks of hGLP-1R BHK Cre-Luc cells were thawed in a 37° C. water bath, washed once in PBS (Gibco 14190-094), diluted to 1.5×10^5 (1.5E+5) cells/mL in assay buffer (without HSA) and added (10 μL) to each well of the 384-well assay plate. After a short centrifugation, the assay plates were incubated for 3 hours at 37° C. in 5% CO2 and let to equilibrated at room temperature for 10 minutes before the addition of 30 μL steadylite Plus™ PerkinElmer/Revvity, 6066759) per well. Plates were sealed and incubated at room temperature with gentle shaking for 30 minutes while protected from light. Luminescence was detected on a luminescence plate reader e.g. a Synergy 2 (BioTek).

On to “Y[Aib]EGTFTSDYSILLEEQAAREFIEWLLAGGPSSGAGQAPGQAPGASHLSTAQTQRLSAELHK([AEEA-AEEA-γGlu-C20 diacid])LATLPRTETGSGSP-NH2 [Compound 115]”, for which the EC50 in data set [1] (hAMYR3 Potency, 1% HSA, EC50, methods B, in the presence of 1% HSA) is 0.551 nM; in data set [1] (method B, absence of HSA, read-out: hAMYR3 Potency, no HSA, EC50), 0.00713 nM; in data set [3] (hGIPR Potency, 1% HSA, EC50, methods B, in the presence of 1% HSA) it was 0.0389 nM; in data set [3] (method B, absence of HSA, read-out: hGIPR Potency, no HSA, EC50) it was 0.0103 nM; in data set [4] (hGLP-1R Potency, 1% HSA, EC50, methods B, in the presence of 1% HSA), 0.0929 nM; in data set [4] (method B, absence of HSA, read-out: hGLP-1R Potency, no HSA, EC50), 0.0194 nM. Moreover, in data set [2], the half-life is 115 h. In the case of “Y[Aib]EGTFTSDYSILLEEQAAREFIEWLLAGGPSSGAGQAPGQAPGASHLSTAQTQRLSAK([AEEA-AEEA-γGlu-C18 diacid])LHRLATLPRTETGSGSP-NH2 [compound 55]”, the half-life in data set [2] was 88 h. Still for that read-out and setting: as for “Y[Aib]EGTFTSDYSILLEEQAAREFIEWLLAGGPSSGAGQAPGQAPLASHLSTAQTQRLSAELHK([AEEA-AEEA-γGlu-C18 diacid])LATLPRTETGSGSP-NH2 [compound 58]”, the figure is 97 h. The same measure, in the same setting: as for “H[Aib]HGTFTSDYSILLEEQAAREFIEWLLAGGPSK([AEEA-AEEA-γGlu-C16 diacid])GAPPPSGGGEASELSTAALGRLSAELHELATLPRTETGSGSP-NH2 [Compound 12]”, the figure is 81 h; as for “Y[Aib]EGTFTSDYSILLEEQAAREFIEWLLAGGPSK([AEEA-AEEA-γGlu-C16 diacid])GEASELSTAALGRLSAELHELATLPRTETGSGSP-NH2 [Compound 11]”, 119 h; as for “Y[Aib]EGTFTSDYSILLEEQAAREFIEWLLAGGPSRGEASHLSTAQTQRLSAELHK([AEEA-AEEA-γGlu-C18 diacid])LATLPRTETGSGSP-NH2 [compound 68]”, 125 h. Still for that read-out and setting: the result for “H[Aib]HGTFTSDYSILLEEQAAREFIEWLLAGGPSK([AEEA-AEEA-γGlu-C16 diacid])GAPPPSGGGEASHLSTAQTARLSAELHRLADLPRTETGSGSP-NH2 [Compound 61]” reads 61 h; that for “H[Aib]HGTFTSDYSILLEEQAAREFIEWLLAGGPSSGAGQAPGQAPLASHLSTAQTQRLSAELHK([AEEA-AEEA-γGlu-C18 diacid])LATLPRTETGSGSP-NH2 [Compound 93]”, 69 h; that for “H[Aib]HGTFTSDYSILLEEQAAREFIEWLLAGGPSSGAGQAPGQAPGASHLSTAQTQRLSAELHRLK([AEEA-AEEA-γGlu-C18 diacid])TLPRTETGSGSP-NH2 [Compound 91]”, 43 h. As to “H[Aib]HGTFTSDYSILLEEQAAREFIEWLLAGGPSK([AEEA-AEEA-γGlu-C20 diacid])GAPPPSGGGEASELSTAALGRLSAELHELATLPRTETGSGSP-NH2 [Compound 16]”, the half-life in data set [2] is 138 h. Regarding “Y[Aib]EGTFTSDYSILLEEQAAREFIEWLLAGGPSSGAGQAPGQAPGASHLSTAQTQRLSAELHK([AEEA-AEEA-γGlu-C18 diacid])LATLPRTETGSGSP-NH2 [compound 52]”, the half-life in data set [2] was 120 h.

Regarding “H[Aib]HGTFTSDYSILLEEQAAREFIEWLLAGGPSK([AEEA-AEEA-γGlu-C18 diacid])GEASQLSTAALGRLSAELHQLATLPRTETGSGSP-NH2 [Compound 64]”, the half-life in data set [2] was 117 h. Same read-out and setting: as for “H[Aib]HGTFTSDYSILLEEQAAREFIEWLLAGGPSK([AEEA-AEEA-γGlu-C18 diacid])GAPPPSGGGEASHLSTAQTARLSAELHQLATLPRTETGSGSP-NH2 [compound 101]”, the figure is 122 h. Still for that read-out and setting: the result for “Y[Aib]EGTFTSDYSILLEEQAAREFIEWLLAGGPSSGAGQAPGQAPGASHLSTAQTQRLSAELHRLATLPK([AEEA-AEEA-γGlu-C18 diacid])TETGSGSP-NH2 [Compound 57]” reads 90 h. “H[Aib]HGTFTSDYSILLEEQAAREFIEWLLAGGPSK([AEEA-AEEA-γGlu-C18 diacid])GAPPPSGGGEASELSTAALGRLSAELHELATLPRTETGSGSP-NH2 [Compound 15]”: in data set [2], the half-life was 122 h.

The EC50 is the concentration at which the effect is half-maximal.
